Measured values as given in article PMC9016025, “Translational imaging of the fibroblast activation protein (FAP) using the new ligand [^68Ga]Ga-OncoFAP-DOTAGA” (European Journal of Nuclear Medicine and Molecular Imaging, 2021).

Columns and labels:
Type in all cases: biochemical
human FAP = target: T1, human FAP (Homo sapiens, UniProt Q12884); test: In vitro fluorescence enzymatic inhibition assay, FAP; settings: for IC50: recombinant FAP, fluorogenic DPP substrate 1, n = 3
T1 construct: purchased BPS Bioscience 80100
T1 sequence (Q12884 1-760): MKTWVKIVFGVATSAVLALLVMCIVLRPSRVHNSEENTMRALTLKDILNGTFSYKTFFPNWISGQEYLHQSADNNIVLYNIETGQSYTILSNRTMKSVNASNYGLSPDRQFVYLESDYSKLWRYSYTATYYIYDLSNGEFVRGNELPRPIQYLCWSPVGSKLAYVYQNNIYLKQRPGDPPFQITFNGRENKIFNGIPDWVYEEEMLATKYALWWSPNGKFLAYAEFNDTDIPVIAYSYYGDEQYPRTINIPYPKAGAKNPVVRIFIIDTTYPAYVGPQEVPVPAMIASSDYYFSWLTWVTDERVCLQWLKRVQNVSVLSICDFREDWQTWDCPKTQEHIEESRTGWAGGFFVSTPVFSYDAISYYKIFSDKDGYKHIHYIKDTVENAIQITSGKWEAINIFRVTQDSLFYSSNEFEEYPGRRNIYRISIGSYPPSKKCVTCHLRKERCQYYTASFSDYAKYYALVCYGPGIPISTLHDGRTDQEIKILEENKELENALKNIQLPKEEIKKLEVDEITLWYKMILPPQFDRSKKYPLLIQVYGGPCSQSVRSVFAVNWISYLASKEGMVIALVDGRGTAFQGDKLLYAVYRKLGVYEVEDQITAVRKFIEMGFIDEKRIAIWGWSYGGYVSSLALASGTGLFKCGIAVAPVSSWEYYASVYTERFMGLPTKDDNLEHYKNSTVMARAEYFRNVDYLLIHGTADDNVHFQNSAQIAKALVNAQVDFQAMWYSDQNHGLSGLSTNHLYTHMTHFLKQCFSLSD
Description: (§1) Enzymatic inhibition activity and selectivity of OncoFAP derivatives was assessed by employing commercially available in vitro fluorescence assays for FAP, dipeptidyl peptidase 8 (DDP8), and prolyl oligo peptidase (POP) (BPS Bioscience, San Diego, CA, US). The fluorogenic substrate (Fluorogenic DPP substrate 1, Ala-Pro-AMC dipeptide, AMC: 7-amino-4-methylcumaryl) was incubated together with recombinant FAP, DDP, or POP/PREP in the presence or absence of test compounds. The enzymatic activity was correlated with the amount of cleaved fluorescent product measured by fluorescence spectroscopy. IC50 of each test compound was determined from the curves obtained by plotting fluorescence intensities at different concentrations of the inhibitor.
(§2) The synthetic fluorometric DPP substrate 1 (BPS Bioscience, San Diego, CA, USA) Catalog no. […] Reaction rates were measured from the initial 30 min of the reaction profile where product release was linear with time and plotted as a function of inhibitor dose.

[1] = target: T2, dipeptidyl peptidase 8 (DPP8) (Homo sapiens, UniProt Q6V1X1); test: In vitro fluorescence enzymatic inhibition assay, DPP8; settings: for IC50: recombinant DPP8, fluorogenic substrate
T2 construct: purchased BPS Bioscience 80080
T2 sequence (Q6V1X1 whole entry): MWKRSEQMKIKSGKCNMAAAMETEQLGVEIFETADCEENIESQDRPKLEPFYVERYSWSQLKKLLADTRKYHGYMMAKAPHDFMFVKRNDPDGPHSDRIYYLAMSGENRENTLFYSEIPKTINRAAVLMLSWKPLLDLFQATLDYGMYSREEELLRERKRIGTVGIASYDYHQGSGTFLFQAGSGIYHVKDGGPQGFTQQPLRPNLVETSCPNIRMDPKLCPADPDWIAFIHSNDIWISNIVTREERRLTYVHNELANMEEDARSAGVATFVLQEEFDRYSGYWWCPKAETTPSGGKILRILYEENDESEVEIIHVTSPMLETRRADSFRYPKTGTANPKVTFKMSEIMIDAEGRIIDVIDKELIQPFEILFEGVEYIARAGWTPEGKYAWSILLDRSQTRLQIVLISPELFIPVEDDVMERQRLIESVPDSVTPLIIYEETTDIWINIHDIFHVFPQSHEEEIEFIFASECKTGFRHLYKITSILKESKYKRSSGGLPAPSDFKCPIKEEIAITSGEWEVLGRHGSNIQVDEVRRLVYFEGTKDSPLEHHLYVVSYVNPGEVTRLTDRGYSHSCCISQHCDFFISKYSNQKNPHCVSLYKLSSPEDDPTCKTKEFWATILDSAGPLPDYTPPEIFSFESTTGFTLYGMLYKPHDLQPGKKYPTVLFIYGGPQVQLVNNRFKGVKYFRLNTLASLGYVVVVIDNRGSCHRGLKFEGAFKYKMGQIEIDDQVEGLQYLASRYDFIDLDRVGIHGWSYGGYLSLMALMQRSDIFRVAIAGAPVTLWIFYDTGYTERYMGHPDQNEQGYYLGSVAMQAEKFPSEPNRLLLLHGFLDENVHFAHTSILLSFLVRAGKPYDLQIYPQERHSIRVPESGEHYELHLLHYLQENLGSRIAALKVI
Description: as §1, §2

[2] = target: T3, prolyl oligo peptidase (POP) (Homo sapiens, UniProt P48147); test: In vitro fluorescence enzymatic inhibition assay, POP; settings: for selectivity for FAP compared to POP: from IC50 values; for IC50: recombinant POP/PREP
T3 construct: purchased BPS Bioscience 80105
T3 sequence (P48147 1-710): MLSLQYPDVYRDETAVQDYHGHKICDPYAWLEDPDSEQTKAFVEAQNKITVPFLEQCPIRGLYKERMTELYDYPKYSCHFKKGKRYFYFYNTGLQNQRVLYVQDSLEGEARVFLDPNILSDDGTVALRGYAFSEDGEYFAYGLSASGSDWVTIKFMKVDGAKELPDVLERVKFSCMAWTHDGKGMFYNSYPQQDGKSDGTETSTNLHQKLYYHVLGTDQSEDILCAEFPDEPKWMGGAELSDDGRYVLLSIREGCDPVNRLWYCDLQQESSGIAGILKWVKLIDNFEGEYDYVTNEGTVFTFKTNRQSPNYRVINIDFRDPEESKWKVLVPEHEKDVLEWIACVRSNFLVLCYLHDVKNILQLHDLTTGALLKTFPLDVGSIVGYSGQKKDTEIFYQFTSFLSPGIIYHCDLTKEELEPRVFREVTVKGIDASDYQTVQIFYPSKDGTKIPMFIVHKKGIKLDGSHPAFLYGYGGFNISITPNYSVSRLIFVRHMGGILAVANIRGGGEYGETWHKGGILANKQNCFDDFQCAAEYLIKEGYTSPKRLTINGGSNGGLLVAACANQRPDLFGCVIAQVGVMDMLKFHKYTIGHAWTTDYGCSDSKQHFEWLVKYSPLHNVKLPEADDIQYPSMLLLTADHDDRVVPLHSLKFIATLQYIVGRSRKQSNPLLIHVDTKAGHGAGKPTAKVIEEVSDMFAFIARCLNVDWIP
Description: as §1, §2

Substance: [^natGa]Ga-FAPI-46 [^natGa-FAPI-46]
- IC50 (human FAP): 8.37 ± 0.71 nM
- selectivity for FAP compared to DPP8 ([1]; from IC50 values): > 1000 fold
- IC50 [1]: 10200 ± 3000 nM
- selectivity for FAP compared to POP [2]: > 1000 fold
- IC50 [2]: > 10000 nM

Substance: [^natGa]Ga-OncoFAP-DOTAGA [^natGa-OncoFAP]
- superior FAP binding potency compared to ^natGa-FAPI-46 (human FAP; from IC50 values): ca. 16 fold
- IC50 (human FAP): 0.51 ± 0.11 nM
- IC50 [1]: 6870 ± 111 nM
- selectivity for FAP compared to POP [2]: 96 fold
- IC50 ([2]; fluorogenic substrate): 49.2 ± 6.3 nM
